Reference: patent publication US20020082280A1, “Method of inhibiting neoplastic cells with benzimidazole derivatives” (priority 1998, published 2002)

Compound: Cc1nc2ccc(C(=O)NS(=O)(=O)C(F)(F)F)cc2n1Cc1ccccc1Cl.Cl
- melting point: 332 to 335 °C (dec.)

Compound: O=C(O)c1ccc2nc(C3CC3)n(Cc3ccccc3F)c2c1 [Example 18, 6-Carboxy-2-Cyclopropyl-1-(2-Fluorobenzyl)Benzimidazole]
- melting point: 224 to 229 °C

Compound: O=C(Nc1ccccn1)c1ccc2nc(C3CC3)n(Cc3ccccc3Cl)c2c1 [Example 28, 1-(2-Chlorobenzyl)-2-Cyclopropyl-6-(2-Pyridylcarbamoyl)Benzimidazole]
- melting point: 206 to 209 °C

Compound: CCCc1nc2ccc(C(=O)N(C)c3ccccn3)cc2n1Cc1ccccc1Cl [Example 37, 1-(2-Chlorobenzyl)-6-[N-Methyl-N-(2-Pyridyl)carbamoyl]-2-n-Propylbenzimidazole]
- melting point: 143 to 146 °C

Compound: CCCCc1nc2ccc(C(=O)N(C)Cc3ccccn3)cc2n1Cc1ccccc1F [Example 40, 2-n-Butyl-1-(2-Fluorobenzyl)-6-[N-Methyl-N-(2-Pyridylmethyl)Carbamoyl]Benzimidazole]
- melting point: 97 to 100 °C

Compound: Cc1nc2ccc(C(=O)NS(=O)(=O)c3ccccc3)cc2n1Cc1ccccc1Cl [Example 111, 6-Benzenesulfonylcarbamoyl-1-(2-Chlorobenzyl)-2-Methylbenzimidazole]
- melting point: 273.5 to 274.3 °C

Compound: Cc1nc2ccc(C=CC(=O)NS(=O)(=O)c3ccccc3)cc2n1Cc1ccccc1Cl [Example 126, N-Benzenesulfonyl-3-[1-(2-Chlorobenzyl)-2-Methylbenzimidazole-6-yl]Acrylamide]
- melting point: 243.1 to 244.3 °C

Compound: Cc1nc2ccc(C(=O)NS(=O)(=O)c3cccc(Cl)c3)cc2n1Cc1ccccc1Cl [Example 156, 6-(3-Chlorobenzenesulfonylcarbamoyl)-1-(2-Chlorobenzyl)-2-Methylbenzimidazole]
- melting point: 254.5 to 257.5 °C (dec.)

Compound: COc1ccc(S(=O)(=O)NC(=O)c2ccc3nc(C)n(Cc4ccccc4Cl)c3c2)cc1 [Example 162, 1-(2-Chlorobenzyl)-6-(4-Methoxybenzenesulfonylcarbamoyl)-2-Methylbenzimidazole]
- melting point: 271 to 274 °C

Compound: Cc1nc2ccc(C(=O)NS(=O)(=O)Cc3ccccc3)cc2n1Cc1ccccc1Cl [Example 163, 1-(2-Chlorobenzyl)-2-Methyl-6-(α-Toluenesulfonylcarbamoyl)Benzimidazole]
- melting point: 193 to 196 °C

Compound: Cc1ccc(C)c(S(=O)(=O)NC(=O)c2ccc3nc(C)n(Cc4ccccc4Cl)c3c2)c1 [Example 164, 1-(2-Chlorobenzyl)-6-(2,5-Dimethylbenzenesulfonylcarbamoyl)-2-Methylbenzimidazole]
- melting point: 266.5 to 267.5 °C

Compound: Cc1nc2ccc(C(=O)NS(=O)(=O)c3ccc([N+](=O)[O-])cc3)cc2n1Cc1ccccc1Cl [Example 165, 1-(2-Chlorobenzyl)-2-Methyl-6-(4-Nitrobenzenesulfonylcarbamoyl)Benzimidazole]
- melting point: 330 to 332 °C

Compound: Cc1nc2ccc(C(=O)NS(=O)(=O)c3ccc(C(F)(F)F)cc3)cc2n1Cc1ccccc1Cl [Example 166, 1-(2-Chlorobenzyl)-2-Methyl-6-[4(Trifluoromethyl)Benzenesulfonylcarbamoyl]Benzimidazole]
- melting point: 288 to 292 °C

Compound: Cc1nc2ccc(C(=O)NS(=O)(=O)c3ccccc3Cl)cc2n1Cc1ccccc1Cl.N [Example 167, 6-(2-Chlorobenzenesulfonylcarbamoyl)-1-(2-Chlorobenzyl)-2-Methylbenzimidazole Ammonium Salt]
- melting point: 264 to 267 °C

Compound: Nc1nc2ccc(C(=O)NS(=O)(=O)c3ccccc3)cc2n1Cc1ccc(-c2ccccc2)cc1 [Example 172, 2-Amino-6-Benzenesulfonylcarbamoyl-1-(Biphenyl-4-ylmethyl)Benzimidazole]
- melting point: 352.5 to 355 °C

Compound: Cc1nc2ccc(CCC(=O)NS(=O)(=O)c3ccccc3)cc2n1Cc1ccccc1Cl [Example 200, N-Benzenesulfonyl-3-[1-(2-chlorobenzyl)-2-methylbenzimidazole-6-yl]propionamide]
- melting point: 229.8 to 233 °C

Compound: CCCCS(=O)(=O)NC(=O)c1ccc2nc(C)n(Cc3ccc(C(=O)c4ccccc4)cc3)c2c1 [Example 300, 1-[(4-Benzoyl)benzyl]-6-(1-Butanesulfonylcarbamoyl)-2-Methylbenzimidazole]
- melting point: 111 to 112.4 °C
